Measurements from US20250041334A1, “Compositions for Virulence Suppression” (Solventum Intellectual Properties Company, priority 2021, published 2025).

Legend:
S. aureus MN8 (pJY202) = assay: Bacterial growth (OD600) in the Agr reporter assay; assay type: cell-based, Staphylococcus aureus MN8; settings: 1X TY media, pH about 6.0, 24 hours
Method: (§1) An S. aureus MN8 (pJY202) colony was picked from a TSA plate and grown overnight in TSB media with 5 µg/mL erythromycin with shaking at 37° C. The culture was centrifuged at 3000×g for 5 minutes and the supernatant was removed. The bacteria were washed once with water.
(§2) Individual growth media solutions for the assay were freshly prepared by adding materials to 1X TY media with 5 μg/mL erythromycin and then adjusting the pH of each solution to about pH 6.0 (using 1M NaOH or 1M HCl). All the growth media solutions were sterile filtered when possible using a 0.2 micrometer filter.
An aliquot of each growth media solution (200 microliters) was added to the well of a 96-well black, clear-bottom plate. Samples were prepared in triplicate (n=3). The bacteria samples were resuspended in 5 mL of 1X TY media. A 3 microliter sample of resuspended S. aureus MN8 (pJY202) was added to each well. […] Bacterial growth was measured at 600 nm (OD600) and Agr activity was measured as fluorescent intensity at 485 nm excitation/528 nm emission. Agr activity (relative fluorescence units, RFU) was normalized to bacterial growth (OD600) for each well. The Agr activity was measured at the 24 hour time point.

[1] = test system: accessory gene regulator (agr) system, agr P2-P3 GFP reporter pJY202; assay: Agr Reporter (Staph Aureus) Assay; assay type: cell-based, Staphylococcus aureus MN8; settings: S. aureus MN8 (pJY202), 1X TY media, RFU normalized to OD600, 24 hours, n=3
Method: Description: The expression of many virulence factors in Staphylococcus aureus is controlled by the quorum sensing accessory gene regulator (agr) system. The plasmid pJY202 is an agr reporter that contains a fusion of the agr P2-P3 region with a gene coding for GFP.
as §1, §2
An aliquot of each growth media solution (200 microliters) was added to the well of a 96-well black, clear-bottom plate. Samples were prepared in triplicate (n=3). The bacteria samples were resuspended in 5 mL of 1X TY media. […] Bacterial growth was measured at 600 nm (OD600) and Agr activity was measured as fluorescent intensity at 485 nm excitation/528 nm emission. Agr activity (relative fluorescence units, RFU) was normalized to bacterial growth (OD600) for each well. The Agr activity was measured at the 24 hour time point.

O=P([O-])(O)O.[K+] [50 mM KH2PO4, KH2PO4]
Growth OD600 at 24 hours (S. aureus MN8 (pJY202)): 1.02
Agr Expression at 24 hours [1]: 86 +/− 6
